Publication PMC7582918, “A short peptide of the C-terminal class Y helices of apolipoprotein A-I has preserved functions in cholesterol efflux and in vivo metabolic control” (Scientific Reports, 2020)

Legend:
[1] = Solubility of the peptide; type: physicochemical; details: peptide chemically modified at the termini
Description: (§1) A 33-mer peptide (RG33) that corresponds to the two Class Y helices (11 and 22 residues, respectively) of the C-terminal domain of ApoA-I (corresponding to regions 209–219 and 220–241 of ApoA-I, respectively) was synthesized and chemically modified at the termini for increased stability (Fig. 1a), and analyzed by SDS-PAGE (Fig. 1b; Suppl. Fig.). Such modifications are known to lead to loss of the terminal charges of the modified peptide with potential reduction in solubility. […] Moreover, the stability of the peptide was tested by incubation for up to 90 min in either PBS or human or mouse plasma followed by LC–MS analysis of the peptide in the complex mixture, or for longer time periods (up to 168 h at 5 °C or 22 °C) in PBS followed by LC-UV analysis of the pure peptide. […] The extent of degradation in plasma was assumed not to affect the in vitro and in vivo analyses made herein. Nevertheless, while not needed for the current study, further modifications aimed at prolonging the half-life of the RG33 peptide in plasma would be beneficial for therapeutic uses.
Figure 1 Peptide characterization for RG33. (a) Full peptide sequence. (b) Peptide purity as shown by Tris/Tricine SDS PAGE visualized by coomassie staining, 5 μg/well. (c) Stability of native or refolded RG33 over time in phosphate buffer, human plasma or mouse plasma. GraphPad Prism (version 8.0) (www.graphpad.com) was used. […]

[2] = Stability in PBS (LC-MS up to 90 min; LC-UV up to 168 h); type: physicochemical
Experimental: (§2) Mouse CD-1 plasma (heparin) was from Novakemi AB. Analysis was performed using LC–MS/MS, a Sciex QTRAP 6500 coupled to a Waters Acquity LC system with an attached HSS T3 2 × 50 mm column. A 5%-100% acetonitrile gradient and 0.1% formic acid was used as mobile phase.
as §1
Figure 1 Peptide characterization for RG33. (a) Full peptide sequence. (b) Peptide purity as shown by Tris/Tricine SDS PAGE visualized by coomassie staining, 5 μg/well. (c) Stability of native or refolded RG33 over time in phosphate buffer, human plasma or mouse plasma. GraphPad Prism (version 8.0) (www.graphpad.com) was used. TEXT PRINTED IN THE PICTURE: (a) RG33: MW (g/mol): 3790.42; Solubility: > 3.0 mg/ml

[3] = Stability in human plasma (LC-MS/MS); type: in vitro ADME; details: human plasma (citrate), pooled from four donors, incubation up to 90 min
Experimental: Peptide (lyophilized powder) produced by Red Glead AB (Lund, Sweden) was reconstituted as previously described. Peptide concentration was determined using a NanoDrop 2000c spectrophotometer (Thermo Scientific), and integrity was analysed by Tris-Tricine SDS-PAGE followed by Coomassie staining and by circular dichroism spectroscopy (CD). CD spectra were acquired on a Jasco J-810 spectropolarimeter equipped with a Jasco CDF-426S Peltier, set to 25 °C[18]. Samples were loaded into a 1 mm quartz cuvette and CD spectra acquired at 25 °C in the far-UV range 200–260 nm, with a 1 nm wavelength increment. Averages of five scans were baseline-subtracted (PBS buffer; 25 mM phosphate, 150 mM NaCl) and the alpha-helical content was calculated from the molar ellipticity at 222 nm as previously described[11],[19]. Human plasma (citrate) was from Blodcentralen at the Uppsala academic hospital and pooled from four healthy volunteer blood donors after giving informed consent for general research use. […]
A 33-mer peptide (RG33) that corresponds to the two Class Y helices (11 and 22 residues, respectively) of the C-terminal domain of ApoA-I (corresponding to regions 209–219 and 220–241 of ApoA-I, respectively) was synthesized and chemically modified at the termini for increased stability (Fig. 1a), and analyzed by SDS-PAGE (Fig. 1b; Suppl. Fig.). […]

[4] = Stability in mouse plasma (LC-MS/MS); type: in vitro ADME; details: mouse CD-1 plasma (heparin), incubation up to 90 min
Experimental: as §2, §1
Figure 1 Peptide characterization for RG33. […]

[5] = rHDL formation / solubilization of DMPC multilamellar vesicles, dynamic light scattering; details: 100 nm DMPC MLVs, 4 days at 24 °C, DLS
Experimental: 1,2-Dimyristoyl-sn-glycero-3-phosphocholine (DMPC; Avanti Polar Lipids) was formed into 100 nm multilamellar vesicles (MLV) via extrusion using the LiposoFast system (Avestin) as previously described. MLV were incubated with RG33 at indicated ratios for 4 days at 24 °C to form rHDL. The resulting particle sizes were measured by Dynamic Light Scattering using a Zetasizer APS (Malvern Instruments).
Figure 2 Peptide structure and lipid complex formation activity of RG33. (a) Circular dichroism spectroscopy of RG33 dissolved in PBS at 0.2 mg/ml. This spectrum represents the average of five measurements using five separate solutions. (b) Helical wheel analysis of residues 209 to 241 of the ApoA-I protein. One-letter code for amino acids is used and numbered 1 to 33 with start at residue 209. (c) rHDL particles were prepared by incubating the MLVs with RG33 peptide in the molar ratios noted at 24 °C for four days. Particle size distribution was analysed by DLS and frequency curves generated for RG33. Both MLVs alone (data on pure 100 nm MLVs is adapted from[15]) and lipid-free peptide are included as controls. GraphPad Prism (version 8.0) (www.graphpad.com) was used. Data represents five individual experiments.
As described above, the amphipathic organization of the RG33 peptide is expected to promote efficient lipid-binding. […]

[6] = previously shown; cited from earlier work
Description: Circular dichroism (CD) spectroscopy (Fig. 2a) was next used to assay for peptide integrity and secondary structure. The helical content of the RG33 peptide in solution was based on the CD data and estimated to be on average 31%. This is higher than the helical content of the 190–243 ApoA-I peptide which was previously shown to be in the range of 17–21% alpha-helix[11]. A high helical content combined with an amphipathic arrangement of the helices is important for the lipid-binding function. Indeed, the binding of lipids induces formation of amphipathic helixes of the ApoA-I protein[23]. In li ...

[7] = system: J774 macrophages; details: previously described; cited from earlier work
Experimental: To analyze this, cultured J774 macrophages were loaded with isotope-labelled cholesterol, followed by incubation with RG33 (LF or LB) at specified concentrations for 2 h (Fig. 3a).

Solubility [1] | Stability in PBS, shorter incubation ([2]; PBS (phosphate buffer), incubation up to 90 min, LC-MS analysis) | Stability in PBS, longer storage at 5 °C ([2]; PBS, up to 168 h (a week) at 5 °C, LC-UV analysis of the pure peptide, data not shown) | Stability in PBS, longer storage at 22 °C ([2]; PBS, up to 168 h (a week) at 22 °C, LC-UV analysis of the pure peptide, data not shown) | Stability in human plasma [3] | Stability in mouse plasma [4] | Solubilization of DMPC MLVs at 1:50 peptide-to-lipid molar ratio [5] | Substance | Helical content (alpha-helix) [6] | Fold increase in Vmax, LB vs LF [7]
> 3000 µg/mL | intact | intact | intact | some degradation | some degradation | only partial solubilization | Ac-PALEDLRQGLLPVLESFKVSFLSALEEYTKKLN-NH2 [RG33] |  | 
 |  |  |  |  |  |  | RG54: Peptide corresponding to amino acid residues 190–243 of ApoA-I protein (AEYHAKATEHLSTLSEKAKPALEDLRQGLLPVLESFKVSFLSALEEYTKKLNTQ; UniProt P02647 214-267, looked up, fragment) | 17–21% | twofold increase
